Assay results from patent publication US5811073A, “Method for radioisotopic detection and localization of inflammation in a host” (President and Fellows of Harvard College, priority 1995, dated 1998).

Columns and labels:
[1] = test system: sterile inflammatory lesions (pus capsule; turpentine oil); experiment: Gamma camera imaging of rats with sterile inflammation; assay type: in vivo, Male Sprague-Dawley rats; conditions: for Figure of Merit (FOM), equation (1): 0.2 mCi ^67 Ga-citrate; for Figure of Merit (FOM), equation (1) / Pus Capsule to Contralateral Tissue (T/B) Ratio, gamma camera imaging: 1.5 mCi/rat ^123 IUdR; for Figure of Merit (FOM), equation (1) / Pus Capsule to Contralateral Tissue (T/B) Ratio, gamma camera imaging / Figure of Merit (FOM), equation (2): n=4, mean ± SD; for Pus Capsule to Contralateral Tissue (T/B) Ratio, gamma camera imaging: 0.2 mCi/rat ^67 Ga
Description: Male Sprague-Dawley rats weighing between 150-200g were obtained from the Charles River Breeding Laboratories in Burlington, Mass. […] To anaesthetize the animals during testing, ketamine (40 mg/kg) and xylazine (10 mg/kg) were administered intra peritoneally (1.0 ml/kg) prior to surgical procedures. For the imaging studies, each animal received 1.5 ml/kg of a mixture of ketamine (75 mg/kg), xylazine (39 mg/kg) and acepromazine (0.75 mg/kg).
To induce a localized sterile inflammation, 0.1 ml of turpentine oil (Rectified Turpentine Oil for medical use, Gentry Corporation, Fair Lawn, N.J.) was injected into the left thigh muscle of anesthetized rats.
(§1) A further set of rats prepared as described in Examples 1 and 2 received intravenous injections of either ^123 IUdR (at a dose of about 1.5 mCi/rat) or gallium-67 citrate (at a dose of about 0.2 mCi/rat). After 1, 3 and 24 hours, rats from each group were anesthetized and imaged using a gamma camera (the General Electric STARCAM™ 400 fitted with parallel hole medium collimator). Anterior images were obtained 10^6 counts/frame except for the 24 h period for ^123 IUdR where a 15 min scan was carried out. A 20% window was present over the 159 keV photopeaks of ^67 Ga (93 kev, 184 keV, and 298 keV).
(§2) Regions of interest (ROI) were drawn over the inflamed areas (3×4 pixel) and over the contralateral area in each rat. Total counts in these regions were used to calculate Target to Background (T/B) ratios and to calculate Figure of Merit (FOM; statistical significance) values using either of the following equations:
(§3) FOM=(At -Ab)^2 /(At +Ab) (1)
(§4) At =counts in ROI (3×4) over pus capsule; and
(§5) Ab =counts in ROI (3×4) over contralateral muscle.
(§6) Equation (1) is derived from the Report of the National Council on Radiation Protection and Measurements, Nuclear Medicine, "Factors Influencing the Choice and Use of Radionuclides in Diagnosis and Therapy", Report No. 70, p.79 (NRCP, Bethesda, Md., 1982). Equation (2) is derived from Rubin et al., J. Nucl. Med. 30:385-389, 1989. For purposes of reference, the disclosures of each of these publications is incorporated herein.

[2] = test system: bacterial (E. coli) inflammatory lesions (pus capsule); experiment: Gamma camera imaging of rats with bacterial infection; assay type: in vivo; set-up: key to Figure of Merit (FOM), equation (1): FOM=(At-Ab)^2/(At+Ab), from total counts target vs background; conditions: for Figure of Merit (FOM), equation (1): 0.2 mCi ^67 Ga-citrate (n=3); for Figure of Merit (FOM), equation (1) / Pus Capsule to Contralateral Tissue (T/B) Ratio, gamma camera imaging: 1.5 mCi/rat ^123 IUdR (n=4); for Figure of Merit (FOM), equation (1) / Pus Capsule to Contralateral Tissue (T/B) Ratio, gamma camera imaging / Figure of Merit (FOM), equation (2): mean ± SD; for Pus Capsule to Contralateral Tissue (T/B) Ratio, gamma camera imaging: 0.2 mCi/rat ^67 Ga (n=3); for Figure of Merit (FOM), equation (2): n=3 (^67 Ga), n=4 (^123 IUdR)
Description: (§7) A frozen sample of E. coli bacteria (clinical isolate; ATCC 9339) was used to inoculate a 10 ml trypticase soy medium (trypticase soy broth, BBL #11768, 30 g/L water), and the tube was incubated overnight at […] This culture was used to grow single colonies by streaking the sample on agar plates (100 mm petri dishes each containing 15 ml of […] in the same medium). Good colonies develop in 10-11 hours at 37° C. The agar plates containing bacterial colonies were stored upside down at 4° C. A single colony of bacteria from the agar plate was used to inoculate 10 ml trypticase soy medium, and the tube was incubated overnight at 37° C. with vigorous shaking. Two ml of this overnight culture was transferred into 100 ml trypticase soy medium and the sample incubated at 37° C. with vigorous shaking until the culture reached an OD600 of ~0.8 (in about 2 hrs). This 100 ml culture contained ~6.4×10^10 bacterial cells (1 OD600 =8×10^8 cells/ml).
(§8) The culture was centrifuged at 5500 rpm for 5 min at 4° C. in a Sorvall SS-34 rotor, the bacterial pellet resuspended in saline to give ~2.5×10^9 bacteria/ml, and 0.1 ml of resuspended cells injected into the left thigh muscle of each anesthetized rat.
as §1, §2, §3, §4, §5, §6

[3] = test system: sterile inflammatory lesions (pus capsule; turpentine oil); experiment: Biodistribution (pus capsule to contralateral tissue ratio) in rats with sterile inflammation
[4] = test system: bacterial (E. coli) inflammatory lesions (pus capsule); experiment: Biodistribution (pus capsule to contralateral tissue ratio) in rats with bacterial infection; assay type: in vivo
Description: as §7, §8
No-carrier added radioiodinated deoxyuridine (^125 IUdR) was synthesized by the method described in the above disclosure. Commercially available gallium-67 citrate of known biodistribution characteristics was obtained, for comparison to ^125 IUdR. 24 hrs after each rat described in Example 2 received an intramuscular injection of E. coli or after each rat described in Example 1 received an intramuscular injection of turpentine oil (to permit comparison of activity in a bacterial inflammation lesions to activity in a sterile inflammation lesions) in the left rear thigh, each rat received either ^125 IUdR (about 5 μCi/rat) or gallium-67 citrate (about 10 μCi/rat) suspended in 0.1 ml saline, by injection into the tail vein.
At one, three and 24 hrs after ^125 IUdR or gallium-67 citrate administration, the animals from each group were anesthetized, blood collected via cardiac puncture, urine aspirated from the urinary bladder, and the rats humanely sacrificed. The biodistribution of each radiopharmaceutical (measured as a function of the % injected dose/gram body weight) was then determined in various normal tissues and organs, as well as the left and right legs, the pus capsule formed within the leg and in contralateral muscle tissues (i.e., background tissues unaffected by inflammation) of equivalent weight.
To determine the distribution of each radiopharmaceutical in various tissues of each rat (i.e., the "biodistribution" of each radiopharmaceutical), samples of background tissues and organs (blood, lung, liver, spleen, kidney, muscle and intestine), of target tissue (the pus capsule formed in the leg) and of contralateral muscle tissue (background tissue adjacent to target tissue) were obtained from each rat and weighed. Radioactivity in each sample was measured in a well-type gamma counter (from LKB, Wallac Oy, Finland). To correct for radioactive decay and permit calculation of activity in each organ or tissue as a fraction of the injected dosage of radiopharmaceutical, aliquots of the injected doses were counted at the same time that radioactivity in each sample was determined. The results were measured as a function of the percentage of injected dose/gram (% ID/g). For further reference regarding measurements of biodistribution of radiopharmaceuticals, particularly in blood, those of ordinary skill in the art may wish to refer to Baker et al., "The Laboratory Rat" (Acad.Press N.Y., 1980).
Ab = %ID/g over contralateral muscle

O=c1[nH]c(=O)n([C@H]2C[C@H](O)[C@@H](CO)O2)cc1[123I] [^123 IUdR]
detection of the lesion in scintigraphic images (in words) ([1]; 1, 3, and 24 h, i.v.): can clearly detect the lesion
Figure of Merit (FOM), equation (1) ([1]; 1 h, i.v.): 14444 ± 559
Pus Capsule to Contralateral Tissue (T/B) Ratio, gamma camera imaging ([1]; 1 h, i.v.): 4.13 ± 1.06
Figure of Merit (FOM), equation (2) ([1]; 1 h, i.v.): 3.13 ± 0.53
Figure of Merit (FOM), equation (1) ([1]; 3 h, i.v.): 750 + 268
Pus Capsule to Contralateral Tissue (T/B) Ratio, gamma camera imaging ([1]; 3 h, i.v.): 3.33 ± 0.92
Figure of Merit (FOM), equation (2) ([1]; 3 h, i.v.): 2.33 ± 0.46
efficacy by imaging T/B ratio, comparison of agents (in words) ([1]; 3 hrs): equal
Figure of Merit (FOM), equation (1) ([1]; 24 h, i.v.): 69 + 52
Pus Capsule to Contralateral Tissue (T/B) Ratio, gamma camera imaging ([1]; 24 h, i.v.): 3.07 ± 0.930
Figure of Merit (FOM), equation (2) ([1]; 24 h, i.v.): 2.07 ± 1.46
accumulation in target tissues, rate vs gallium-67 citrate (in words) ([1]; FIGS. 4 and 8 vs FIGS. 3 and 7): more quickly than did gallium-67 citrate
radioscintigraphic detection by FOM, comparison of agents (in words) ([1]; early (i.e., 1 h)): superior agent
radioscintigraphic detection by imaging T/B ratio, comparison of agents (in words) ([1]; early (i.e., 1 h)): superior to gallium-67
detection of the lesion in scintigraphic images (in words) ([2]; 1, 3, and 24 h, i.v.): can clearly detect the lesion
radioscintigraphic detection by FOM, comparison of agents (in words) ([2]; 1 h, 3 hrs, and 24 hrs): superior agent
radioscintigraphic detection by imaging T/B ratio, comparison of agents (in words) ([2]; 1 h, 3 hrs, and 24 hrs): superior to gallium-67
Figure of Merit (FOM), equation (1) ([2]; 1 h, i.v.): 1770 ± 598
Pus Capsule to Contralateral Tissue (T/B) Ratio, gamma camera imaging ([2]; 1 h, i.v.): 3.72 ± 1.06
Figure of Merit (FOM), equation (2) ([2]; 1 h, i.v.): 2.72 ± 0.53
Figure of Merit (FOM), equation (1) ([2]; 3 h, i.v.): 1507 ± 775
Pus Capsule to Contralateral Tissue (T/B) Ratio, gamma camera imaging ([2]; 3 h, i.v.): 3.53 ± 0.80
Figure of Merit (FOM), equation (2) ([2]; 3 h, i.v.): 2.53 ± 0.40
Figure of Merit (FOM), equation (1) ([2]; 24 h, i.v.): 214 + 135
Pus Capsule to Contralateral Tissue (T/B) Ratio, gamma camera imaging ([2]; 24 h, i.v.): 5.35 ± 2.37
Figure of Merit (FOM), equation (2) ([2]; 24 h, i.v.): 4.35 ± 1.19

O=c1[nH]c(=O)n([C@H]2C[C@H](O)[C@@H](CO)O2)cc1[125I] [^125 IUdR]
concentration within lesion (pus capsule) vs contralateral tissues (in words) ([3]; sterile inflammation (turpentine oil)): to a greater extent than in the contralateral tissues
radioscintigraphic detection by biodistribution T/B ratios, compared with ^67 Ga (in words) ([3]; sterile inflammation, 3 h and 24 h): much better than ^67 Ga
radioscintigraphic detection by biodistribution T/B ratios, compared with ^67 Ga (in words) ([4]; bacterial infection, 1 h, 3 h, and 24 h): better
concentration within lesion (pus capsule) vs contralateral tissues (in words) ([4]; rat, in vivo): to a greater extent than in the contralateral tissues
time of accumulation in target (inflamed) tissues ([4]; rat, in vivo): ≤ 1 h
